Measurements: patent US20210353593A1 (Chinook Therapeutics, Inc., priority 2019, published 2021)
“Also recorded” adds a separate entry of the source.

What was measured:
[1] = tested on: primary human renal mesangial cells (HRMCs); experiment: Proliferation (BrdU) of primary human renal mesangial cells stimulated with IgA-containing immune complexes; format: cell-based
From the text: Primary human mesangial cells in a culture were stimulated with pathogenic galactose deficient (Gd)-IgA containing immune complexes isolated from human IgA nephropathy patients.
Specifically, pathogenic IgA-containing immune complexes were isolated from serum from either IgA nephropathy patients or age, gender and ethnicity-matched healthy individuals. Frozen serum was purchased from BioIVT and IgA-containing immune complexes were purified using jacalin affinity chromatography. […] Purified IgA-containing immune complexes were concentrated using a 100K Amicon filtration unit and the amount of total IgA and galactose-deficient IgA (Gd-IgA) in the immune complexes was measured by ELISA (ThermoFisher and IBL America, respectively). […] See, e.g., Novak et. al., Kidney International, 67, pp. 504-516; 2005; Novak et. al., Nephrol. Dial. Transplant, 26, pp. 3451-3457; 2011; Liang et. al., Cell Physiol. Biochem., 36, pp. 1793-1808; 2015; Nguyen et. al., Clin. Kidney 1, 12 (2), pp, 232-238; 2019.

g-ddY mice = experiment: Albuminuria (UACR) in g-ddY mouse model of IgA nephropathy; format: in vivo
From the text: The grouped ddY (g-ddY) mouse is a spontaneous model of early-onset IgA nephropathy characterized by IgA immune complex deposition in the mesangium of the kidney, leading to significant proteinuria, glomerular hypercellularity, mesangioproliferative glomerular lesions, glomerular sclerosis and reduced kidney function, all hallmarks of human IgA nephropathy (J Am Soc Nephrol 23: 1364-1374, 2012). Consistent with human IgA nephropathy, the mesangial IgA deposits in the g-ddY mouse are also accompanied by deposition of IgG and complement C3.

[2] = 10 mg/kg/day, approximately 5 days

CCCCN(CCCC)C(=O)CN1C[C@H](c2ccc3c(c2)OCO3)[C@@H](C(=O)O)[C@@H]1c1ccc(OC)cc1 [Atrasentan, (2R,3R,4S)-4-(1,3-benzodioxol-5-yl)-1-[2-(dibutylamino)-2-oxoethyl]-2-(4-methoxyphenyl)pyrrolidine-3-carboxylic acid]
basal cell proliferation in HRMCs ([1]; IgA containing serum fractions from healthy controls): no effect
proliferation of HRMCs induced by IgA containing immune complexes from patients with IgA nephropathy ([1]; immune complexes from three separate IgAN patients, BrdU): reduces the proliferation; also recorded: significantly attenuated the hyperproliferation
mice with reduced albuminuria (g-ddY mice; 10 mg/kg/day group): ⅔
reduction of UACR from baseline (g-ddY mice; 10 mg/kg/day in drinking water, approximately 5 days): 28±44%
albuminuria vs baseline (paired t-test) (g-ddY mice; [2]): not significantly changed from baseline
effect on UACR compared to control group (un-paired t-test) (g-ddY mice; [2]): not significant
reduction of UACR from baseline (g-ddY mice; 20 mg/kg/day in drinking water, approximately 5 days): 62±8%
effect on UACR compared to control group (un-paired t-test) (g-ddY mice; 20 mg/kg/day, approximately 5 days, P=0.0498): statistically significant compared to the control group; also recorded: significantly reduced albuminuria
albuminuria vs baseline (paired t-test) (g-ddY mice; 20 mg/kg/day, approximately 5 days, P=0.0593): reduced from baseline to a similar extent
reduction of UACR from baseline (g-ddY mice; 30 mg/kg/day in drinking water, approximately 5 days): 63±6%
albuminuria vs baseline (paired t-test) (g-ddY mice; 30 mg/kg/day, approximately 5 days): significantly (P=0.0002, paired two-sided t-test) reduced albuminuria from baseline
effect on UACR compared to control group (un-paired t-test) (g-ddY mice; 30 mg/kg/day, approximately 5 days, P=0.029): statistically significant compared to the control group; also recorded: significantly reduced albuminuria
magnitude of albuminuria lowering (reduction from baseline) (g-ddY mice; 20 and 30 mg/kg/day, approximately 5 days): > 60%
